# Patent US10294202B2, “Pyrrolidinones as herbicides” (FMC Corporation, priority 2013, dated 2019)
# Key:
# bluegrass = assay: Test D pre-/postemergence herbicide test; assay type: in vivo, Poa annua; settings: Preemergence; for Plant response rating, Bluegrass: scale 0 to 100 (0 no effect, 100 complete control)
# Method in brief: (§1)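 Visual 0–100 ratings (0 = no effect, 100 = complete control) versus controls, made 7 to 21 days after treatment in a controlled growth environment. Test chemicals in surfactant-containing non-phytotoxic solvent were applied preemergence to silt loam-sown seeds and postemergence to plants 2–18 cm tall.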
# waterhemp = assay: Test E preemergence herbicide test; assay type: in vivo, Amaranthus rudis; design: key: 0 = no effect, 100 = complete control
# Method in brief: (§2)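 Seeds sown in silt loam soil received preemergence treatment with compound in a non-phytotoxic solvent mixture containing surfactant. After 21 days in the greenhouse, plants were visually rated against untreated controls on a 0 (no effect) to 100 (complete control) scale.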
# blackgrass = assay: Test D pre-/postemergence herbicide test; assay type: in vivo, Alopecurus myosuroides; settings: Preemergence; for Plant response rating, Blackgrass: scale 0 to 100 (0 no effect, 100 complete control)
# Method in brief: as §1
# bromegrass, downy = assay: Test D pre-/postemergence herbicide test; assay type: in vivo, Bromus tectorum; settings: Preemergence; for Plant response rating, Bromegrass, Downy: scale 0 to 100 (0 no effect, 100 complete control)
# Method in brief: as §1
# pigweed, palmer = assay: Test E preemergence herbicide test; assay type: in vivo, Amaranthus palmeri; design: key: 0 = no effect, 100 = complete control
# Method in brief: as §2
# lambsquarters = assay: Test D pre-/postemergence herbicide test; assay type: in vivo, Chenopodium album; settings: Preemergence; for Plant response rating, Lambsquarters: scale 0 to 100 (0 no effect, 100 complete control)
# Method in brief: as §1
# foxtail, green = assay: Test E preemergence herbicide test; assay type: in vivo, Setaria viridis; design: key: 0 = no effect, 100 = complete control
# Method in brief: as §2
# crabgrass, large = assay: Test E preemergence herbicide test; assay type: in vivo, Digitaria sanguinalis; design: key: 0 = no effect, 100 = complete control
# Method in brief: as §2
# speedwell = assay: Test D pre-/postemergence herbicide test; assay type: in vivo, Veronica persica; settings: Preemergence, scale 0 to 100 (0 no effect, 100 complete control)
# Method in brief: as §1
smiles,measurement,setting,value
O=C1NC[C@H](c2cccc(C(F)(F)F)c2)[C@H]1C(=O)Nc1cccc(F)c1F [Compound 206],"Plant response rating, Bluegrass",bluegrass; 62 g ai/ha,30
same,"Plant response rating, Bluegrass",bluegrass; 125 g ai/ha,35
same,"Plant response rating, Bluegrass",bluegrass; 31 g ai/ha,0
same,Plant response rating,"bluegrass; 250 g ai/ha, Bluegrass, scale 0 to 100",70
same,"Plant response rating, Waterhemp",waterhemp; 31 g ai/ha,50
same,"Plant response rating, Waterhemp",waterhemp; 125 g ai/ha,50
same,"Plant response rating, Waterhemp",waterhemp; 250 g ai/ha,50
same,"Plant response rating, Blackgrass",blackgrass; 62 g ai/ha,70
same,"Plant response rating, Blackgrass",blackgrass; 125 g ai/ha,85
same,"Plant response rating, Blackgrass",blackgrass; 31 g ai/ha,30
same,Plant response rating,"blackgrass; 250 g ai/ha, Blackgrass, scale 0 to 100",90
same,"Plant response rating, Bromegrass, Downy","bromegrass, downy; 62 g ai/ha",25
same,"Plant response rating, Bromegrass, Downy","bromegrass, downy; 125 g ai/ha",55
same,"Plant response rating, Bromegrass, Downy","bromegrass, downy; 31 g ai/ha",10
same,Plant response rating,"bromegrass, downy; 250 g ai/ha, Bromegrass, Downy, scale 0 to 100",70
same,"Plant response rating, Pigweed, Palmer","pigweed, palmer; 31 g ai/ha",0
same,"Plant response rating, Pigweed, Palmer","pigweed, palmer; 62 g ai/ha",0
same,"Plant response rating, Pigweed, Palmer","pigweed, palmer; 125 g ai/ha",0
same,"Plant response rating, Pigweed, Palmer","pigweed, palmer; 250 g ai/ha",0
same,"Plant response rating, Lambsquarters",lambsquarters; 62 g ai/ha,80
same,"Plant response rating, Lambsquarters",lambsquarters; 125 g ai/ha,85
same,"Plant response rating, Lambsquarters",lambsquarters; 31 g ai/ha,50
same,Plant response rating,"lambsquarters; 250 g ai/ha, Lambsquarters, scale 0 to 100",90
same,"Plant response rating, Foxtail, Green","foxtail, green; 31 g ai/ha",80
same,"Plant response rating, Foxtail, Green","foxtail, green; 62 g ai/ha",98
same,"Plant response rating, Foxtail, Green","foxtail, green; 125 g ai/ha",98
same,"Plant response rating, Foxtail, Green","foxtail, green; 250 g ai/ha",98
same,"Plant response rating, Crabgrass, Large","crabgrass, large; 31 g ai/ha",98
same,"Plant response rating, Crabgrass, Large","crabgrass, large; 62 g ai/ha",98
same,"Plant response rating, Crabgrass, Large","crabgrass, large; 125 g ai/ha",98
same,"Plant response rating, Crabgrass, Large","crabgrass, large; 250 g ai/ha",100
same,"Plant response rating, Speedwell",speedwell; 62 g ai/ha,25
same,"Plant response rating, Speedwell",speedwell; 125 g ai/ha,65
same,"Plant response rating, Speedwell",speedwell; 31 g ai/ha,0
same,"Plant response rating, Speedwell",speedwell; 250 g ai/ha,90
